In this experiment the test system is blood cells. Nature of the experiment: Lysis of blood cells by the lysing agent. The experiment is classed as cell-based. Conditions: in lysing buffer. The source says:
Currently available methods employ saponin to lyse blood cells for isolating bacteria from positive blood cultures. […] It is probable that this identification failure is due to the blood cells not being completely lysed and/or a high content of blood debris. […] In some embodiments, SDA is very water soluble. An advantage of using SDA as the lysing agent for isolating bacteria from positive blood culture is that the MALDI score for challenging species such as Staphylococcus epidermidis can be higher than the cutoff value, leading to correct species identification. Moreover, processing times using SDA versus saponin can be nearly identical.
FIG. 1 depicts exemplary data related to MALDI scores for Staphylococcus epidermidis isolated from positive blood cultures using different lysing agents, namely saponin (SAP), Nonoxynol-9 (Somatic Cell Digestion Agent (SDA)), and a combination thereof. The concentration of each lysing agent was used at 0.52% (w/w). The score for acceptance of identification is greater than or equal to 1.8 for the Sepsityper database and 2.0 for the standard database. […] SDA is generally used as a spermicide by interacting with the lipids in the membranes of the acrosome and the midpiece of the sperm.

Nonoxynol-9 [SDA]: the blood cell lysis entry is “lyse blood cells very efficiently”.

The values above are taken from US20240026278A1, “BLOOD CELL LYSING AGENT FOR ISOLATING BACTERIA FROM BLOOD CULTURE” (Becton, Dickinson and Company, priority 2020, published 2024).
